From publication PMC12274840 (The Journal of Biological Chemistry, 2025)
≈ marks a conversion by molar mass, not a printed value. Where two headings read alike, the source gives them in different places.

Tests used:
[1] = tested on: E. coli KA797 cells carrying pUK21 vector without the β-lactamase gene; test: microbe, parasite or virus in culture; type: cell-based; settings: Escherichia coli; antibiotic alone; pUK21 without β-lactamase gene; read-out: MIC
[2] = tested on: E. coli KA797 cells carrying pUK21 with CTX-M-14 WT (Tat); test: microbe, parasite or virus in culture; type: cell-based; settings: Escherichia coli, antibiotic alone
[3] = tested on: E. coli KA797 cells carrying pUK21 with KPC-2 (Tat); test: microbe, parasite or virus in culture; type: cell-based; settings: Escherichia coli, antibiotic alone
[4] = tested on: E. coli KA797 cells carrying BlaC position 105 library; type: cell-based, Escherichia coli; settings: ampicillin; for Fi AMP AVG: average of replicates
[5] = tested on: E. coli KA797 cells carrying NmcA position 105 library; type: cell-based

CC1(C)S[C@@H]2[C@H](NC(=O)[C@H](N)c3ccccc3)C(=O)N2[C@H]1C(=O)O [ampicillin]
MIC [1]: 10 µg/mL (≈ 28.6 µM)
MIC [2]: 1600 µg/mL (≈ 4580 µM)
MIC [3]: 200 µg/mL (≈ 572 µM)
Significance (Fi AMP AVG) ([4]; AA 105 Ala): +
Fi AMP AVG ([4]; AA 105 Ala): 0.883
Fi AMP 1 ([4]; AA 105 Ala, replicate 1): 0.406
Fi AMP 2 ([4]; AA 105 Ala, replicate 2): 1.100
Fi AMP 3 ([4]; AA 105 Ala, replicate 3): 1.141
Fi AMP AVG ([4]; AA 105 Arg): 0.475
Fi AMP 1 ([4]; AA 105 Arg, replicate 1): 0.818
Fi AMP 2 ([4]; AA 105 Arg, replicate 2): -0.366
Fi AMP 3 ([4]; AA 105 Arg, replicate 3): 0.972
Fi AMP AVG ([4]; AA 105 Asn): -0.118
Fi AMP 1 ([4]; AA 105 Asn, replicate 1): -0.339
Fi AMP 2 ([4]; AA 105 Asn, replicate 2): -0.227
Fi AMP 3 ([4]; AA 105 Asn, replicate 3): 0.211
Fi AMP AVG ([4]; AA 105 Asp): 0.229
Fi AMP 1 ([4]; AA 105 Asp, replicate 1): 0.470
Fi AMP 3 ([4]; AA 105 Asp, replicate 3): -0.012
Significance (Fi AMP AVG) ([4]; AA 105 Cys): +
Fi AMP AVG ([4]; AA 105 Cys): 0.500
Fi AMP 1 ([4]; AA 105 Cys, replicate 1): 0.488
Fi AMP 2 ([4]; AA 105 Cys, replicate 2): 0.257
Fi AMP 3 ([4]; AA 105 Cys, replicate 3): 0.755
Fi AMP AVG ([4]; AA 105 Gln): 0.694
Fi AMP 3 ([4]; AA 105 Gln, replicate 3): 0.694
Fi AMP AVG ([4]; AA 105 Glu): 0.120
Fi AMP 1 ([4]; AA 105 Glu, replicate 1): -0.486
Fi AMP 2 ([4]; AA 105 Glu, replicate 2): 1.183
Fi AMP 3 ([4]; AA 105 Glu, replicate 3): -0.337
Fi AMP AVG ([4]; AA 105 Gly): 0.342
Fi AMP 1 ([4]; AA 105 Gly, replicate 1): 0.540
Fi AMP 2 ([4]; AA 105 Gly, replicate 2): -0.133
Fi AMP 3 ([4]; AA 105 Gly, replicate 3): 0.619
Significance (Fi AMP AVG) ([4]; AA 105 His): +
Fi AMP AVG ([4]; AA 105 His): 2.187
Fi AMP 1 ([4]; AA 105 His, replicate 1): 2.095
Fi AMP 2 ([4]; AA 105 His, replicate 2): 2.262
Fi AMP 3 ([4]; AA 105 His, replicate 3): 2.205
Fi AMP AVG ([4]; AA 105 Ile (WT)): 0.000
Fi AMP 1 ([4]; AA 105 Ile (WT), replicate 1): 0.000
Fi AMP 2 ([4]; AA 105 Ile (WT), replicate 2): 0.000
Fi AMP 3 ([4]; AA 105 Ile (WT), replicate 3): 0.000
Fi AMP AVG ([4]; AA 105 Leu): 0.259
Fi AMP 1 ([4]; AA 105 Leu, replicate 1): 0.406
Fi AMP 2 ([4]; AA 105 Leu, replicate 2): -0.033
Fi AMP 3 ([4]; AA 105 Leu, replicate 3): 0.405
Fi AMP AVG ([4]; AA 105 Lys): 0.741
Fi AMP 1 ([4]; AA 105 Lys, replicate 1): 0.741
Fi AMP AVG ([4]; AA 105 Met): 0.434
Fi AMP 1 ([4]; AA 105 Met, replicate 1): 0.165
Fi AMP 2 ([4]; AA 105 Met, replicate 2): 0.714
Fi AMP 3 ([4]; AA 105 Met, replicate 3): 0.423
Significance (Fi AMP AVG) ([4]; AA 105 Phe): +
Fi AMP AVG ([4]; AA 105 Phe): 3.116
Fi AMP 1 ([4]; AA 105 Phe, replicate 1): 3.353
Fi AMP 2 ([4]; AA 105 Phe, replicate 2): 2.935
Fi AMP 3 ([4]; AA 105 Phe, replicate 3): 3.061
Fi AMP AVG ([4]; AA 105 Pro): 0.423
Fi AMP 1 ([4]; AA 105 Pro, replicate 1): 0.675
Fi AMP 2 ([4]; AA 105 Pro, replicate 2): 0.012
Fi AMP 3 ([4]; AA 105 Pro, replicate 3): 0.583
Fi AMP AVG ([4]; AA 105 Ser): 0.267
Fi AMP 1 ([4]; AA 105 Ser, replicate 1): 1.268
Fi AMP 2 ([4]; AA 105 Ser, replicate 2): -0.404
Fi AMP 3 ([4]; AA 105 Ser, replicate 3): -0.062
Fi AMP AVG ([4]; AA 105 Thr): 0.222
Fi AMP 1 ([4]; AA 105 Thr, replicate 1): -0.283
Fi AMP 2 ([4]; AA 105 Thr, replicate 2): 0.921
Fi AMP 3 ([4]; AA 105 Thr, replicate 3): 0.029
Significance (Fi AMP AVG) ([4]; AA 105 Trp): +
Fi AMP AVG ([4]; AA 105 Trp): 3.126
Fi AMP 1 ([4]; AA 105 Trp, replicate 1): 3.329
Fi AMP 2 ([4]; AA 105 Trp, replicate 2): 2.872
Fi AMP 3 ([4]; AA 105 Trp, replicate 3): 3.175
Significance (Fi AMP AVG) ([4]; AA 105 Tyr): +
Fi AMP AVG ([4]; AA 105 Tyr): 3.396
Fi AMP 1 ([4]; AA 105 Tyr, replicate 1): 3.695
Fi AMP 2 ([4]; AA 105 Tyr, replicate 2): 3.143
Fi AMP 3 ([4]; AA 105 Tyr, replicate 3): 3.349
Fi AMP AVG ([4]; AA 105 Val): -0.310
Fi AMP 1 ([4]; AA 105 Val, replicate 1): -0.429
Fi AMP 3 ([4]; AA 105 Val, replicate 3): -0.191
WT abs Fi 1 ([4]; WT (Ile 105) absolute fitness, replicate 1): -1.907
WT abs Fi 2 ([4]; WT (Ile 105) absolute fitness, replicate 2): -1.350
WT abs Fi 3 ([4]; WT (Ile 105) absolute fitness, replicate 3): -1.353
Fi AVG (average fitness of replicates) ([5]; NmcA AA 105 Ala): -0.604
Significance of average fitness ([5]; NmcA AA 105 Ala): -
Fi AVG (average fitness of replicates) ([5]; NmcA AA 105 Arg): -0.595
Significance of average fitness ([5]; NmcA AA 105 Arg): -
Fi AVG (average fitness of replicates) ([5]; NmcA AA 105 Asn): -0.193
Significance of average fitness ([5]; NmcA AA 105 Asn): -
Fi AVG (average fitness of replicates) ([5]; NmcA AA 105 Asp): -0.514
Significance of average fitness ([5]; NmcA AA 105 Asp): -
Fi AVG (average fitness of replicates) ([5]; NmcA AA 105 Cys): -0.572
Significance of average fitness ([5]; NmcA AA 105 Cys): -
Fi AVG (average fitness of replicates) ([5]; NmcA AA 105 Gln): -0.362
Significance of average fitness ([5]; NmcA AA 105 Gln): -
Fi AVG (average fitness of replicates) ([5]; NmcA AA 105 Glu): -0.554
Significance of average fitness ([5]; NmcA AA 105 Glu): -
Fi AVG (average fitness of replicates) ([5]; NmcA AA 105 Gly): -0.012
Fi AVG (average fitness of replicates) ([5]; NmcA AA 105 His): 0.000
Fi AVG (average fitness of replicates) ([5]; NmcA AA 105 Ile): -0.668
Significance of average fitness ([5]; NmcA AA 105 Ile): -
Fi AVG (average fitness of replicates) ([5]; NmcA AA 105 Leu): -0.515
Significance of average fitness ([5]; NmcA AA 105 Leu): -
Fi AVG (average fitness of replicates) ([5]; NmcA AA 105 Lys): -0.761
Significance of average fitness ([5]; NmcA AA 105 Lys): -
Fi AVG (average fitness of replicates) ([5]; NmcA AA 105 Met): -0.296
Significance of average fitness ([5]; NmcA AA 105 Met): -
Fi AVG (average fitness of replicates) ([5]; NmcA AA 105 Phe): -0.065
Fi AVG (average fitness of replicates) ([5]; NmcA AA 105 Pro): -0.462
Significance of average fitness ([5]; NmcA AA 105 Pro): -
Fi AVG (average fitness of replicates) ([5]; NmcA AA 105 Ser): -0.413
Significance of average fitness ([5]; NmcA AA 105 Ser): -
Fi AVG (average fitness of replicates) ([5]; NmcA AA 105 Thr): -0.905
Significance of average fitness ([5]; NmcA AA 105 Thr): -
Fi AVG (average fitness of replicates) ([5]; NmcA AA 105 Trp): 0.277
Significance of average fitness ([5]; NmcA AA 105 Trp): +
Fi AVG (average fitness of replicates) ([5]; NmcA AA 105 Tyr): 0.049
Fi AVG (average fitness of replicates) ([5]; NmcA AA 105 Val): -0.608
Significance of average fitness ([5]; NmcA AA 105 Val): -
WT abs Fi 1 (absolute fitness) ([5]; NmcA WT, replicate 1): 0.229
WT abs Fi 2 (absolute fitness) ([5]; NmcA WT, replicate 2): 0.425
